The text below walks through data of patent publication US20070270392A1, “Use of a Cyclopentenone Prostaglandin for Delaying the Onset and/or Preventing the Continuation of Labour” (Imperial College Innovations Limited, priority 2003, published 2007).

Each structure is given as a SMILES string. Residues, ends and D or L forms follow the SMILES beside them. *: point of attachment. Cbz = O=C(OCc1ccccc1)*

Assay [1] relates to NF-κB. Put plainly: EMSA of NF-κB DNA binding in nuclear extracts of treated amnion cells. It is filed as cell-based, human. How it is done:
(§1) Electro-mobility shift assay (EMSA) analysis of NF-κB DNA binding in nuclear protein extracts from (A) myometrial cells, (B) L+amnion cells, and (C) L− amnion cells treated with 15dPGJ2 or vehicle for 2 h+/−IL-1b stimulation (15 min). Consensus kB probe used to assess NF-κB DNA binding, and consensus Oct-1 probe used as control.
EMSA analysis of nuclear protein extracts from amnion cells treated with 15dPGJ2+/−GW9662 or vehicle for 2 h followed by IL-1β stimulation (15 min). Consensus kB probe used to assess NFκB DNA binding, consensus Oct-1 probe used as control.
(§2) EMSA analysis of nuclear protein extracts from (A) myometrial cells, and (B) amnion cells treated with PGA1 or vehicle for 2 h followed by IL-1b stimulation (15 min). Consensus κB probe used to assess NFκB DNA binding, consensus Oct-1 probe used as control. For supershift analysis, extracts were preincubated with antibodies against p50 or p65.
(§3) EMSA analysis of nuclear protein extracts from (A) L− amnion cells and (B) myometrial cells treated with vehicle, PGE2 or IL-1β. Consensus κB probe used.
(§4) Placentae were obtained from patients at term either at elective Caesarean section prior to labour (L−) or following spontaneous labour onset and vaginal delivery (L+). Amnion cells were prepared as described in Bennett et al., (1989). Briefly, the amnion was separated from the placenta, washed 3× in PBS, cut into strips, and incubated in 0.51 mM EDTA in PBS for 15 min. The strips were washed in PBS 2× and digested with 2.5 mg/ml dispase in serum-free DMEM for 35 min at 37° C. The amnion was then shaken vigorously in DMEM, 10% FCS to dissociate the cells, the remaining strips discarded, and the cell suspension pelleted at 175 g for 10 min and cultured in DMEM, 10% FCS (Sigma), 1% L-glutamine, 1% penicillin-streptomycin.
(§5) Nuclear and cytosolic protein extracts were obtained from cultured amnion cells as described by Schreiber et al (1989). For nuclear/cytosolic fractionation, confluent cell monolayers were scraped and lysed using a buffer containing 10 mM HEPES, 10 mM KCl, 0.1 mM EDTA, 0.1 mM EGTA, 2 mM DTT, 1% (v/v) NP-40 and complete protease inhibitor tablets (CPIs, Roche), diluted to manufacturer's instructions. Cell lysates were incubated on ice for 10 min and NP-40 added to a final concentration of 1% (v/v). Lysates were vortexed for 10 secs and centrifuged for 30 secs at 4° C., 12000 g. The supernatants were retained as the cytosolic protein extracts. The pellets were resuspended in buffer containing 10 mM HEPES, 10 mM KCl, 0.1 mM EDTA, 0.1 mM EGTA, 2 mM DTT, 400 mM NaCl, 1% NP-40 (v/v) and CPIs. Samples were shaken vigorously for 15 min in an ice bath. The nuclear protein extracts were obtained in the supernatant following a 5 min centrifugation at 4° C., 12000 g.
(§6) Sense and antisense strands (175 nmole/ml each) were incubated in annealing buffer (10 mM Tris-HCl pH7.5, 100 mM NaCl, 1 mM EDTA) for 10 min at 65° C., and allowed to cool at room temperature for 2 h. 3.5 pmole double-stranded oligonucleotides were end-labelled with 0.37 MBq ^32P(γATP) by incubating for 30 min at 37° C. with T4 polynucleotide kinase. Labelled oligonucleotides were recovered by centrifugation at […] for 2 min through MicroSpin G-25 or G-50 sephadex columns (Amersham Biosciences). […]

Assay [2] deals with NF-κB. Put plainly: Western immunoblot of NF-κB activation (p65, p50, IκB) in amnion cells. Type of assay: cell-based, human. As to conditions: L−. How it is done:
(§7) Western immunoblots of nuclear or cytosolic protein extracts from (A) myometrial cells, (B) L− amnion cells, and (C) L+amnion cells treated with 15dPGJ2 or vehicle for 2 h+/−IL-1, stimulation (15 min). Blots probed with antibodies against p65, p50 or IκBα.
as §4, §5
Protein samples (20-70 μg) were mixed with Laemmli sample buffer (1:1) containing β-mercaptoethanol (5%), and boiled for 5 min. Proteins were then separated by SDS-PAGE (12-14% gels) and transferred onto PVDF membrane (Amersham Pharmacia Biotech). The membranes were blocked overnight in 5% non-fat milk prepared in PBS-T buffer, at 4° C. The blots were incubated with the primary antibody in 1% non-fat milk in PBS-T buffer for 1 h, and washed three times (10 min each) in PBS-T with vigorous shaking. The blots were then incubated with HRP-conjugated secondary antibody (diluted 1:2000 in 1% non-fat milk in PBS-T buffer) for 1 h and washed three times (10 min each) in PBS-T. Signal detection was achieved using enhanced chemi-luminescence (ECL plus system, Amersham Pharmacia Biotech) according to manufacturer's instructions. […]
(In general: In western blotting, separated proteins are transferred to a membrane and probed.)

Assay [3] concerns NF-κB. Kind of assay: Western immunoblot of NF-κB activation (p65, p50, IκB) in myometrial cells. Type of assay: cell-based, human. Also noted: Accumulation of phosphorylated IκBα: dose or concentration left out as unconfirmed. How it is done: as §7
Western immunoblot of nuclear or cytosolic protein extracts from myometrial cells treated with PGA1 or vehicle for 2 h followed by IL-1β stimulation (15 min). Blots probed with antibodies against p65 or IκBa.
(§8) Analysis of nuclear protein extracts from myometrial cells treated with PGE2 or vehicle for 2 h+/−TNFα or IL-1b stimulation (15 min). (A) EMSA using consensus κB probe. (B) Western immunoblot probing for nuclear p65.
Western immunoblots of cytosolic extracts from myometrial cells (A) treated with 15dPGJ2 for 2 h+/−IL1b for 15 min; probed for IKK, and (B) treated with […] 15dPGJ2, […] MG132 or vehicle for 2 h, +/−IL-1β for 15 min; probed for IκBα.
(§9) Myometrial tissue was collected at term from the upper margin of uterine incision at the time of lower segment caesarean section either prior to the onset of labour (L−) or […] (L+). L+ samples were collected by Dr Mark Johnson and Dr S Soorrana at Chelsea & Westminster Hospital. Myometrial tissue was dissected, rinsed in PBS, and digested in serum-free DMEM containing 15 mg/ml collagenase 1A (Sigma), 15 mg/ml collagenase X, and 50 mg/ml bovine serum albumin for 45 min at 37° C. The cell suspension was filtered through a cell strainer, centrifuged at 400 g for 5 min, and the pellet re-suspended and plated out in DMEM, 10% FCS (Helena BioScience), 1% L-glutamine, 1% penicillin-streptomycin. Cells were used between passage numbers 1-4.
as §5
Protein samples (20-70 μg) were mixed with Laemmli sample buffer (1:1) containing β-mercaptoethanol (5%), and boiled for 5 min. Proteins were then separated by SDS-PAGE (12-14% gels) and transferred onto PVDF membrane (Amersham Pharmacia Biotech). The membranes were blocked overnight in 5% non-fat milk prepared in PBS-T buffer, at 4° C. The blots were incubated with the primary antibody in 1% non-fat milk in PBS-T buffer for 1 h, and washed three times (10 min each) in PBS-T with vigorous shaking. The blots were then incubated with HRP-conjugated secondary antibody (diluted 1:2000 in 1% non-fat milk in PBS-T buffer) for 1 h and washed three times (10 min each) in PBS-T. Signal detection was achieved using enhanced chemi-luminescence (ECL plus system, Amersham Pharmacia Biotech) according to manufacturer's instructions.
30-50 μg protein extracts were subjected to SDS-PAGE and Western immuno-blotting. Secondary antibodies were IgG-HRP and ECL Plus detection kit (Amersham Pharmacia Biotech, Amersham Place, Little Chalfont, Bucks, HP7 9NA) was used for visualisation.

In assay [4] the test system is NF-κB. Put plainly: EMSA of NF-κB DNA binding in nuclear extracts of treated myometrial cells. It is filed as cell-based, human. As to conditions: myometrial cells; for IL-1β-induced NF-κB DNA binding: IL-1β stimulation 15 min. How it is done:
as §1
Consensus κB probe used to assess NF-κB DNA binding, consensus Oct-1 probe used as control. For supershift analysis, extracts were preincubated with antibodies against p50 or p65.
EMSA analysis of nuclear protein extracts from myometrial cells treated with (A) WY-14643 or vehicle, and (B) high doses of troglitazone, WY-14643 or vehicle for 2 h followed by IL-1b stimulation (15 min). Consensus κB probe used to assess NFκB DNA binding, consensus Oct-1 and Sp-1 probes used as controls.
as §2, §8, §3, §9, §5, §6
(In EMSA bound probe runs differently from free probe, usually more slowly.)

Assay [5] concerns NF-κB. Put plainly: NF-κB-dependent luciferase reporter (κB.BG.Luc) in myometrial cells. It is filed as cell-based, human. As to conditions: treated 2 h, IL-1β 1 ng/ml 6 h. How it is done:
Myometrial cells were transiently transfected with the NFκB-dependent reporter construct κB.BG.Luc, treated with 15dPGJ2 or vehicle for 2 h, +/−IL-1β(1 ng/ml) for 6 h. […] Values are normalised for b-gal reporter activity. (NS=nonstimulated).
Myometrial cells were transfected with […] κB.BG.Luc reporter and 200 ng PPAR-γ expression vector and treated with 15d-PGJ2 for 2 h followed by IL-1β (1 ng/ml) for 6 h. Values are normalised for β-galactosidase reporter activity. (NS=nonstimulated).
as §9
pGL3.6 κB.BG.luc: a NF-κB-dependent reporter construct with 6 copies of the NF-κB binding site.
Cells were co-transfected with the renilla vector pRL-CMV or a β-galactosidase vector pCH110 as internal controls for transfection efficiencies.
Background: A reporter such as luciferase makes a cellular process visible.

In a further assay the test system is PPARα. As to conditions: GAL4 chimera transfection system; cited from earlier work.

With `CCCCC(C)(C)[C@H](O)/C=C/[C@H]1[C@H](O)CC(=O)[C@@H]1C/C=C\CCCC(=O)O` [16,16-Dimethyl-PGE2], in the assay on NF-κB [1] (L− amnion cells), the “Induction of NF-κB DNA binding by the compound alone” value is “does not induce”. Also, the “IL-1β-induced NF-κB DNA binding” value in the assay on NF-κB [1] (L− and L+ amnion cells, treated 2 h, IL-1β stimulation 15 min) was “did not inhibit”; with NF-κB [4] (treated 2 h), “did not inhibit”. The “IL-1β-induced p65 nuclear translocation” value with NF-κB [2] and with NF-κB [3] was “did not inhibit” each time. Further, in the assay on NF-κB [4], the “Synergy with IL-1β or TNFα on NF-κB activity” value is recorded as “nor did it synergise”. Also, the “TNFα- and IL-1β-induced NFκB activation” value with NF-κB [4] (treated 2 h, TNFα or IL-1b 15 min) was “does not inhibit”. The “Induction of NF-κB DNA binding / stimulation of NF-κB activity by the compound alone” value is “neither did it stimulate” in the assay on NF-κB [4] (listed as 16,16-dimethyl-PGE2) and “does not induce” in the assay on NF-κB [4] (listed as PGE2).

As for `CN(CCOc1ccc(C[C@H](Nc2ccccc2C(=O)c2ccccc2)C(=O)O)cc1)c1ccccn1` [GW1929, reference compound], in the assay with NF-κB [5], the “IL-1-induced NF-κB transcriptional activity” value is listed as “not”. Also, in the assay with NF-κB [4] (treated 2 h), the “IL-1β-induced NF-κB DNA binding” value is recorded as “failed to inhibit”.

Consider `O=C(Nc1ccccc1)c1cc([N+](=O)[O-])ccc1Cl` [GW-9662], for which the “Alleviation of 15d-PGJ2 inhibition of NF-κB DNA binding” value in the assay with NF-κB [1] (amnion cells treated with 15d-PGJ2 in the presence of GW-9662) is reported as “failed to alleviate”.

For `CC(C)C[C@@H](C=O)NC(=O)[C@H](CC(C)C)NC(=O)[C@H](CC(C)C)NC(=O)OCc1ccccc1` [MG132, reference compound] (Cbz-Leu-Leu-Leu-aldehyde), the “IL-1β-induced IκBα degradation” value in the assay on NF-κB [3] is recorded as “prevented”. In addition, in the assay with NF-κB [3] (2 h, IL-1β 15 min), the “Accumulation of phosphorylated IκBα” value was “resulted in the accumulation”.

In the case of `Cc1cccc(Nc2cc(Cl)nc(SCC(=O)O)n2)c1C` [WY-14643, reference compound], in the assay with PPARα, the “Doses that can transactivate PPARα” value was 5 to 25 µM. Further, the “IL-1-induced NF-κB transcriptional activity” value in the assay with NF-κB [5] is “not”. Moreover, the “NF-κB DNA binding” value in the assay with NF-κB [4] (10-100 μM concentrations) is listed as “had no effect”.
